These results are taken from ChEMBL document CHEMBL5370617, “Identification of a 1,2,4-Oxadiazole with Potent and Specific Activity against Clostridioides difficile, the Causative Bacterium of C. difficile Infection, an Urgent Public Health Threat” (2023).

Holding throughout (format): functional
What all share (details): time 24-48 hrs

In experiment [1] the test system is Clostridioides difficile. In words: Antibacterial activity against Clostridioides difficile ATCC 43255 assessed as bacterial growth inhibition measured at 24 to 48 hrs.
Experiment [2] deals with Clostridioides difficile. Kind of experiment: Antibacterial activity against Clostridioides difficile assessed as bacterial growth inhibition measured at 24 to 48 hrs.
The subject of experiment [3] is Clostridioides difficile. In words: Antibacterial activity against drug sensitive Clostridioides difficile assessed as bacterial growth inhibition measured at 24 to 48 hrs.
Experiment [4] relates to Clostridioides difficile. Kind of experiment: Antibacterial activity against multi drug resistant Clostridioides difficile assessed as bacterial growth inhibition measured at 24 to 48 hrs.

Molecules are shown by their SMILES. Converted amounts (≈) assume the structure as drawn.

In general, MIC refers to the lowest concentration found to suppress growth. In the case of `FC(F)(F)c1ccc(Oc2ccc(-c3noc(-c4ccc5[nH]ccc5c4)n3)cc2)cc1`, the MIC in the experiment on Clostridioides difficile [1] came out at 4 µg/mL (≈ 9.49 µM).
Same read-out and setting: under `Oc1ccc(-c2nc(-c3ccc(OC4CCCC4)cc3)no2)cc1` stands 2 µg/mL (≈ 6.2 µM).
Take `O=[N+]([O-])c1cn(CCO)c(-c2nc(-c3ccc(OC4CCCC4)cc3)no2)n1`: the MIC with Clostridioides difficile [2] was above 128 µg/mL.
As usually defined, the MIC90 is the lowest concentration that inhibits either 90% of growth or 90% of the strains tested, depending on the study. Turning to `O=[N+]([O-])c1c[nH]c(-c2nc(-c3ccc(OC4CCCC4)cc3)no2)n1`, the MIC in the experiment with Clostridioides difficile [1] came to 0.25 µg/mL (≈ 0.732 µM). Moreover, the MIC90 in the experiment on Clostridioides difficile [3] and in the experiment with Clostridioides difficile [4] was 1 µg/mL (≈ 2.93 µM) each time.
With `Cn1c(-c2nc(-c3ccc(OC4CCCC4)cc3)no2)cnc1[N+](=O)[O-]`, in the experiment on Clostridioides difficile [2], the MIC came out at 32 µg/mL (≈ 90.1 µM).
On the same count and under the same terms, under `Cc1ncc([N+](=O)[O-])n1CCO` [METRONIDAZOLE] stands 0.25 µg/mL (≈ 1.46 µM).
